Reference: paper PMC4870705, “Topical Delivery of Protein and Peptide Using Novel Cell Penetrating Peptide IMT-P8” (Scientific Reports, 2016)
Entries after “also recorded” stand apart in the source; their conditions may differ.

Experiments:
HeLa cells [1] = assay: Cell viability assay (MTT); assay type: cell-based, human; conditions: 24 h, serum containing medium; for Cell viability (MTT): HeLa, unlabeled peptide 0, 5, 10 and 20 μM, 37 °C
Method: (§1) Figure 3 Cell viability assay. (A) HeLa, (B) PC3 and (C) MDA-MB-231 cells were incubated with increasing concentrations (5, 10, and 20 μM) of peptides in serum containing medium at 37 °C for 24 h. Cell viability was measured by MTT assay. Viability of only cells (without peptide) was taken as 100% and viabilities of cells treated with increasing concentration of peptides were plotted as percentage of control.
(§2) Cell viability was determined by MTT assay. Briefly, cells (HeLa, PC3 and MDA-MB-231) were seeded at a density of 5 × 10^3 cells/well in 96-well microtiter plates in medium supplemented with 10% FBS 24 h before the start of the experiment. Cells were incubated with different concentrations (5, 10, and 20 μM, respectively) of unlabeled peptides for 24 h. […] At the end of the incubation period, cell growth was assayed by the addition of 20 μl of MTT (5 mg/mL; Sigma-Aldrich) to each well, and plate was incubated at 37 °C for 4 h. Later, the medium was removed carefully, 200 μl DMSO was added and mixed, and the absorbance was read at 570 nm with a microplate reader (Bio-Rad). The survival of cells relative to the control (cells incubated with growth medium containing no peptide) was calculated by taking the ratio of the absorbance at 570 nm values. All the experiments were performed in triplicates.

HeLa cells [2] = assay: Confocal laser scanning microscopy, intracellular localization in live cells; conditions: FITC-labeled peptide 2.5 μM, 30 min, 37 °C
Method: Cells were washed with PBS thrice and live cells were imaged. Scale bars are 10 μm.
Cells were not fixed to avoid artifactual localization of the internalized peptide. At the end of the incubation period, culture medium was removed, and coverslips were washed thoroughly with PBS for 3–5 minutes (thrice) and mounted on glass slides with the antifade reagent.
Thereafter, cells were washed with PBS thrice and immediately examined using the confocal microscope.

PC3 cells = assay: Cell viability assay (MTT); assay type: cell-based, human; conditions: unlabeled peptide 5, 10 and 20 μM, 24 h, serum containing medium
Method: as §1, §2

MDA-MB-231 cells = assay: Cell viability assay (MTT); assay type: cell-based, human; conditions: unlabeled peptide 5, 10 and 20 μM, 24 h, serum containing medium
Method: as §1, §2

KLAKLAKKLAKLAK [reference compound]
Cell viability (MTT) (HeLa cells [1]): not effective at any concentration tested
Internalization / fluorescence in cells by CLSM (HeLa cells [2]): no fluorescence

KLAKLAKKLAKLAKRRWRRWNRFNRRRCR [IMT-P8-KLA, fusion peptide of KLA and IMT-P8, 29 aa]
Cell viability (MTT) (PC3 cells): dose-dependent decrease in cell viability
Cell viability (MTT) (MDA-MB-231 cells): dose-dependent decrease in cell viability
Cell viability (MTT) (HeLa cells [1]): dose-dependent decrease in cell viability; also recorded: caused significant cell death
Cell viability (MTT) at 20 μM (HeLa cells [1]; unlabeled peptide 20 μM, HeLa (text says all cell lines examined)): significant decrease in cell viability

RRWRRWNRFNRRRCR [IMT-P8, novel human protein-derived arginine-rich cell-penetrating peptide (Institute of Microbial Technology-Peptide 8), 15 aa]
Cell viability (MTT) (HeLa cells [1]): not effective at any concentration tested
